Patent US12404260B2, “Pyridine rings containing derivatives as MALT1 inhibitors” (Janssen Pharmaceutica NV, priority 2019, dated 2025)

Tests used:
[1] = target: T1, full-length MALT1 protein (Strep-MALT1(1-824)-His) (Homo sapiens, UniProt Q9UDY8); test: MALT1 Biochemical Protease Assay; conditions: 10 nM FL MALT1, 200 μM Ac-LRSR-AMC, 50 min pre-incubation, 4 h at RT; read-out: MALT1_Biochemical activity (Ac-LRSR-amc) IC50
T1 construct: full-length MALT1 protein (Strep-MALT1(1-824)-His) purified from baculovirus-infected insect cells; Strep (N); His (C); made in house; host or cells: baculovirus-infected insect cells
T1 sequence (Q9UDY8 1-824): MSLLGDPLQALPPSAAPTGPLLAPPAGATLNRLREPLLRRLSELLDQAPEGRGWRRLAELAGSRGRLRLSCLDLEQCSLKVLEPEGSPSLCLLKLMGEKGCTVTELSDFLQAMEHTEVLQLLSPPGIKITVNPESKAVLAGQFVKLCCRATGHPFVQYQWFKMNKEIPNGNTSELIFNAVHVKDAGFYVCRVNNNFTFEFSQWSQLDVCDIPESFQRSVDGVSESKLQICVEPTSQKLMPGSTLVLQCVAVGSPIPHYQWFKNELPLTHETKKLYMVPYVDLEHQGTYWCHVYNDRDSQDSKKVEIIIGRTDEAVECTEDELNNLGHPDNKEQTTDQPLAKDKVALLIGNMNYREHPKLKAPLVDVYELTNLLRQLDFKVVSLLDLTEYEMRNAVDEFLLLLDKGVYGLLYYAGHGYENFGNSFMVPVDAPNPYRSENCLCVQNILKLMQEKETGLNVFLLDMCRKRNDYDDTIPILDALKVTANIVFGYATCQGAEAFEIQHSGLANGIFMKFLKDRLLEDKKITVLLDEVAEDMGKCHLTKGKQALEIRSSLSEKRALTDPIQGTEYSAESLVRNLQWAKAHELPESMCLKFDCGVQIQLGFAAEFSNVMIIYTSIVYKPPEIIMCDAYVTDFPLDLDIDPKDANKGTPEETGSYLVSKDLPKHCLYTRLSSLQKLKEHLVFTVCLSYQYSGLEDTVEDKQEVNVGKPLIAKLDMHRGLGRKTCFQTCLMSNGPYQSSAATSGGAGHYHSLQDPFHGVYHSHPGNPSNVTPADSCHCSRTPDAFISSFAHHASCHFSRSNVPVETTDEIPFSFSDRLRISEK
Method: MALT1 protease activity was assessed in an in vitro assay using a tetrapeptide as substrate and full-length MALT1 protein (Strep-MALT1(1-824)-His) purified from baculovirus-infected insect cells. The tetrapeptide LRSR is coupled to AMC (7-amino-4-methylcoumarin) and provides a quenched, fluorescent substrate for the MALT1 protease (SM Biochemicals). Cleavage of AMC from the Arginine residue results in an increase in coumarin fluorescence measured at 460 nm (excitation 355 nm). The final assay buffer consisted of 10 nM FL MALT1 protein, 200 μM Ac-LRSR-AMC, 50 mM Tris pH 7.5, 0.6 M Citrate, 1 mM DTT, 1 mM EDTA, 0.05% BSA and 1.5% DMSO. Test compounds were spotted at 50 nL in 100% DMSO per well of a black 384-Proxiplate (Perkin Elmer). Test compound concentrations ranged from 30 μM to 0.5 nM using 11 dilution steps (1:3). Background signal was measured from control wells containing assay buffer without enzyme which functions as low control (LC). High control (HC) values were generated using the reaction with enzyme but no compound treatment. Compounds were pre-incubated with MALT1 enzyme for 50 minutes at RT. Substrate was added subsequently and fluorescence was measured in Labsystems fluoroskan at excitation 355 nm and emission 460 nm to determine time 0. The reaction was subsequently incubated for 4 h at RT and fluorescence was measured. For IC50 calculations, timepoint 0 was subtracted from the 4 h timepoint to correct for any potential autofluorescence of the compounds. The enzyme reaction was linear during the 4 h incubation period. Characterization of the substrate Ac-LRSR-AMC determined the Michaelis constant KM at 200 μM.
IC50 values were calculated using the following formula (Z prime should be >0.5): […]
A best-fit curve was fitted by a minimum sum of squares method to the plot of % Controlmin vs. compound concentration. From this an IC50 value (inhibitory concentration causing 50% inhibition) can be obtained. An estimate of the slope of the plot in terms of the Hill coefficient was also obtained.
Used in “Lexis Dose Response Curve Fitting” Version 1.0.

[2] = system: secretion of IL6 by OCI-LY3 ABC-DLBCL cells; test: Human IL6 Mesoscale assay (OCI-LY3); type: cell-based; conditions: 24 h incubation, IL6 in supernatant
Method: (§1) NFKB signaling regulates the secretion of multiple cytokines, including IL6 and IL10. Secretion of the cytokines IL6 and IL10 by OCI-LY3 ABC-DLBCL cells was measured using a mesoscale assay. Inhibition of NFKB signaling by MALT1 inhibitors results in a decrease of IL6/10 secretion.
(§2) OCI-LY3 cells were propagated in RPMI-1640 (Sigma Aldrich) supplemented with 10% fetal bovine serum (HyClone), 1 mM sodium pyruvate (Invitrogen), 2 mM L-glutamine (Sigma Aldrich) and 1% PenStrep (Sigma Aldrich). Cell passage number should not exceed 30. Cells should be kept between 0.5-2.5 million cells per mL during culturing and cells should be supplemented every 2-3 days with fresh 50 μM beta-mercaptoethanol. No beta-mercaptoethanol was used during the mesoscale assay.
(§3) For the Mesoscale assay, 100,000 OCI-LY3 cells were seeded per well into black-colored 96-well plates with clear bottom (Corning #3904) and test compounds were added in 9 dilution steps (1:2) ranging from 15 μM to 58.6 nM (final DMSO concentration 0.3%). DMSO control wells were used to determine the maximum signal (High Control (HC)). Treatment with the BTK inhibitor RN486 in a dose range from 30 nM to […] (9 dilutions of 1:2) served as a positive control for NFKB pathway inhibition and was used to determine the maximum inhibition (Low Control (LC)). Compounds and cells were incubated for 24 h at 37° C. and 5% CO2 (assay volume is 150 μL). After 24 h of incubation 50 μL of the supernatant was transferred to a MSD plate (V-Plex Proinflammation Panel 1 (human) kit, Mesoscale (MSD)) and incubated for 2 h with vigorous shaking (600 rpm) at room temperature. Following incubation, plates were washed 3× with PBS+0.05% Tween-20 and 25 μL detection antibody solution (IL6 & IL10 antibodies in diluent 3 (MSD)) was added per well followed by 2 h of incubation with vigorous shaking (600 rpm) at room temperature. After 3× washes with PBS+0.05% Tween-20, plates were incubated with 150 μL 2× Read Buffer T and read on SECTOR imager.

[3] = system: secretion of IL10 by OCI-LY3 ABC-DLBCL cells; test: Human IL10 Mesoscale assay (OCI-LY3); type: cell-based; conditions: 24 h incubation, IL10 in supernatant
Method: as §1, §2, §3

| SMILES | IC50 [1] [nM] | IC50 [2] [nM] | IC50 [3] [nM] |
| --- | --- | --- | --- |
| CO[C@@H](C)c1c(NC(=O)Nc2cnc(-n3nccn3)c(Cl)c2)cnc(C)c1C#N [Co. 61] | 40 | 130 | 90 |
| CO[C@H](C)c1c(NC(=O)Nc2cnc(-n3nccn3)c(Cl)c2)cnc(C)c1C#N [Co. 62] | 220 | 750 | 450 |
| CO[C@H](C)c1c(NC(=O)Nc2ccnc(C(F)(F)F)c2)cnc(C)c1Cl [Co. 64] | 170 | 680 | 190 |
| CO[C@H](C)c1c(NC(=O)Nc2cnc(C3CC3)c(C(F)(F)F)c2)cnc(C)c1Cl [Co. 67] | 1950 | 4170 | 1780 |
| CO[C@@H](C)c1c(NC(=O)Nc2cnc(OC(F)F)c(Cl)c2)cnc(C)c1C#N [Co. 70] | 50 | 60 | 30 |
| CO[C@@H](C)c1c(NC(=O)Nc2cnc(OC(F)F)c(Cl)c2)cnc(C)c1Cl [Co. 73] | 80 | 110 | 60 |
| CO[C@H](C)c1c(NC(=O)Nc2cnc(OC(F)F)c(Cl)c2)cnc(C)c1Cl [Co. 74] | 1350 | 930 | 650 |
| COc1ncc(NC(=O)Nc2cnc(C)c(Cl)c2[C@H](C)OC)cc1C#N [Co. 76] | 160 | 130 | 110 |
| COc1ncc(NC(=O)Nc2cnc(C)c(Cl)c2[C@@H](C)OC)cc1C#N [Co. 77] | 8320 | 7590 | 6030 |
| COc1nc(-n2nccn2)c(Cl)cc1NC(=O)Nc1cnc(C)c(C#N)c1[C@@H](C)OC [Co. 79] | 20 | 110 | 60 |
| COc1nc(-n2nccn2)c(Cl)cc1NC(=O)Nc1cnc(C)c(C#N)c1[C@H](C)OC [Co. 80] | 50 | 150 | 90 |
| COc1nc(-n2nccn2)c(Cl)cc1NC(=O)Nc1cnc(C)c(Cl)c1[C@@H](C)OC [Co. 82] | 50 | 120 | 90 |
| COc1nc(-n2nccn2)c(Cl)cc1NC(=O)Nc1cnc(C)c(Cl)c1[C@H](C)OC [Co. 83] | 350 | 500 | 180 |
| COc1nc(-n2nccn2)c(Cl)cc1NC(=O)Nc1cnc(C)c(Br)c1[C@@H](C)OC [Co. 85] | 30 | 100 | 50 |
| CO[C@H](C)c1c(NC(=O)Nc2cc(Cl)c(-n3nccn3)nc2C)cnc(C)c1C#N [Co. 88] | 100 | 290 | 170 |
| CO[C@@H](C)c1c(NC(=O)Nc2cc(Cl)c(-n3nccn3)nc2C)cnc(C)c1C#N [Co. 89] | 110 | 250 | 160 |
| CO[C@H](C)c1c(NC(=O)Nc2cnc(-n3nccn3)c(C#N)c2)cnc(C)c1Br [Co. 91] | 20 | 90 | 50 |
